Activity calls are given as the source filed them. The rule behind the calls is not given here.

Broadly, the IC50 is the concentration needed to halve the response being measured. As usually defined, the inhibition is the percentage by which the read-out fell short of the control. Low readings indicate a weak effect, high ones a strong effect.

Experiment [1] deals with T1, Protein deacetylase HDAC6 (Homo sapiens) (UniProt Q9UBN7).
T1 sequence (whole entry): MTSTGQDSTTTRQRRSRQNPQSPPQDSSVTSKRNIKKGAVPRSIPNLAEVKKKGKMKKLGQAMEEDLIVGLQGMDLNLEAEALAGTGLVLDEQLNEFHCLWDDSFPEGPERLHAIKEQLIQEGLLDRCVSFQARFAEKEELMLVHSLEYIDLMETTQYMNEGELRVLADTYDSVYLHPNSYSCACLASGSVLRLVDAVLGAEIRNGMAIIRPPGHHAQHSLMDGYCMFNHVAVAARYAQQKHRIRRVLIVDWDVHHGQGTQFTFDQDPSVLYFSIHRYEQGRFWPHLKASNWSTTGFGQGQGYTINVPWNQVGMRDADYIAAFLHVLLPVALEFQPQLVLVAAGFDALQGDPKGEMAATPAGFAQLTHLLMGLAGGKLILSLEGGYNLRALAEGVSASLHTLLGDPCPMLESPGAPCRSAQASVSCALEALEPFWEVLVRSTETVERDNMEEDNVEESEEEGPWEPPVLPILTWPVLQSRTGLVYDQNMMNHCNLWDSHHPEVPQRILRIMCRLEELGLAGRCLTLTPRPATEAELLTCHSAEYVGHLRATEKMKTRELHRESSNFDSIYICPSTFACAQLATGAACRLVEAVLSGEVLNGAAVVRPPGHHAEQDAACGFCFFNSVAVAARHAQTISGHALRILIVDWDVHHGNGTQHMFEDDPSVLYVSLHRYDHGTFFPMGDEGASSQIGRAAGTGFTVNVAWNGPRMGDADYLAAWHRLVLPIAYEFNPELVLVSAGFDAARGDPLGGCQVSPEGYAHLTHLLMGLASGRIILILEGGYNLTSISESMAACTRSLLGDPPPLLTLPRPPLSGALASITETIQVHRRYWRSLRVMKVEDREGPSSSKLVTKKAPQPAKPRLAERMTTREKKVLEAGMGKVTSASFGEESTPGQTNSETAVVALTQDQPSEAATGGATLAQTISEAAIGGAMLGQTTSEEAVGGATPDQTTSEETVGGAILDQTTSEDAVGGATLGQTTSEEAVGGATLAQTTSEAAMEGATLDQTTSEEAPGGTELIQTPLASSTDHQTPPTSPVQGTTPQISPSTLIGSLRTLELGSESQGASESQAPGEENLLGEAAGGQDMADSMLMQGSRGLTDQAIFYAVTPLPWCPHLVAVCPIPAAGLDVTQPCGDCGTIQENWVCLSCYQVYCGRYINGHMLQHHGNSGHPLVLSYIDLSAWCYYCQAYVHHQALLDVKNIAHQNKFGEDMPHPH
Put plainly: Inhibition of HDAC6 at 10 uM.

The subject of experiment [2] is T2, Histone deacetylase 4 (Homo sapiens), P56524 [H976Y].
T2 sequence (whole entry): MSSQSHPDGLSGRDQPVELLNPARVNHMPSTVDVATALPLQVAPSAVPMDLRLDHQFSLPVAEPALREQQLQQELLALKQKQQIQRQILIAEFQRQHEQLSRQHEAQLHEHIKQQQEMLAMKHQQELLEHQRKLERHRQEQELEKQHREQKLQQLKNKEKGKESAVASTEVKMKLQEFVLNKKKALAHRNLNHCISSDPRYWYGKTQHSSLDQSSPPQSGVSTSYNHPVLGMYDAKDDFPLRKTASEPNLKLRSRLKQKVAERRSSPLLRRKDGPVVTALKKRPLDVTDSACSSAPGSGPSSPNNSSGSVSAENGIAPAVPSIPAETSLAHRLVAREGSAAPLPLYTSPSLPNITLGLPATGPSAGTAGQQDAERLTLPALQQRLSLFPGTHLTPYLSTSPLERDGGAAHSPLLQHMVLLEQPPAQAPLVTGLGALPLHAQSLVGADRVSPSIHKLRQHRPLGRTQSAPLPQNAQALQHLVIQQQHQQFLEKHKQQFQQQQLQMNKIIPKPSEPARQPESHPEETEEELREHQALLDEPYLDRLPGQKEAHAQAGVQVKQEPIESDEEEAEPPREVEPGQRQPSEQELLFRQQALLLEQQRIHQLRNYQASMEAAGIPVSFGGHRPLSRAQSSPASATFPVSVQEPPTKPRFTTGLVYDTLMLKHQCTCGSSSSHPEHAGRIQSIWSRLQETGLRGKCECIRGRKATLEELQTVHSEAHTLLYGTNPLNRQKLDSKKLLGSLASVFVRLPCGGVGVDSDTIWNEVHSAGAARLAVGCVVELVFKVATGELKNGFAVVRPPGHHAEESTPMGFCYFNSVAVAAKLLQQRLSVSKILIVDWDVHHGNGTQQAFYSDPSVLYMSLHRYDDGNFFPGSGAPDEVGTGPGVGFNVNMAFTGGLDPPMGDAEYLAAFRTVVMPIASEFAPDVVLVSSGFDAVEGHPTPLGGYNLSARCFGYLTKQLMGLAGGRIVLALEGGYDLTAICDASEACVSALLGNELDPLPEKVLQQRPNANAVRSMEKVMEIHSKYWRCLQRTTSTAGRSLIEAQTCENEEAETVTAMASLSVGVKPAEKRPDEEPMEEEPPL
Description: Inhibition of HDAC4GOF mutant at 10 uM.

In experiment [3] the target is T3, Histone deacetylase 4 (Homo sapiens, UniProt P56524). Description: Inhibition of wild type HDAC4 at 10 uM.
Experiment [4] deals with T4, Histone deacetylase 3 (Homo sapiens, UniProt O15379). Put plainly: Inhibition of HDAC3.
The target in experiment [5] is T5, Histone deacetylase 1 (Homo sapiens, UniProt Q13547). Description: Inhibition of HDAC1.
Experiment [6] has as its target T3, Histone deacetylase 4. Put plainly: Inhibition of wild type HDAC4 expressed in Escherichia coli.
Experiment [7] deals with T1, Protein deacetylase HDAC6 (Homo sapiens). Description: Inhibition of HDAC6 at 9 nM.
Experiment [8] concerns the target Histone deacetylase 4 (Homo sapiens, UniProt P56524, H976Y). Description: Inhibition of HDAC4GOF mutant expressed in Escherichia coli.
The target in experiment [9] is T5, Histone deacetylase 1. Put plainly: Inhibition of HDAC1 at 10 uM.
The target in experiment [10] is T4, Histone deacetylase 3. Put plainly: Inhibition of HDAC3 at 10 uM.
A further experiment concerns the target Tubulin. Put plainly: Inhibition of tubulin deacetylation in human HCT116 cells. The note with it: hct-116. The experiment is classed as cell-based.
The target in experiment [11] is T6, Protein deacetylase HDAC6 (Homo sapiens, UniProt Q9UBN7).
T6 sequence (Q9UBN7 whole entry): T1 sequence (whole entry)
Put plainly: Inhibition of HDAC6.

The target in experiment [12] is T4, Histone deacetylase 3. Description: Inhibition of HDAC3 at 5 uM.

T5 sequence (Q13547 whole entry): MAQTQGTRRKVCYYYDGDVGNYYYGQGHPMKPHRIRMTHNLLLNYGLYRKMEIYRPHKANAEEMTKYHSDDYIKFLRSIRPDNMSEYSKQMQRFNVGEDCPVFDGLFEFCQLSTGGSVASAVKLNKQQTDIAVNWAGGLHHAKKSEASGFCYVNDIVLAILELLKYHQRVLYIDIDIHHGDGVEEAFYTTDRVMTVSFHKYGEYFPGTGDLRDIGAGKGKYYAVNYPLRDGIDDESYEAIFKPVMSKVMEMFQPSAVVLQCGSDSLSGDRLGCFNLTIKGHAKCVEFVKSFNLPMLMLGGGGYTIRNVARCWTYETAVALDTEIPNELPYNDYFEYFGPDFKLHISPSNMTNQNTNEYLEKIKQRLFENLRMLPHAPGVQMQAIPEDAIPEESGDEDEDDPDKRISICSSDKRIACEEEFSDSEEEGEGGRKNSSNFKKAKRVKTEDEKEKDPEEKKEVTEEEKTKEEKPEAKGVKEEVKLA
T3 sequence (P56524 whole entry): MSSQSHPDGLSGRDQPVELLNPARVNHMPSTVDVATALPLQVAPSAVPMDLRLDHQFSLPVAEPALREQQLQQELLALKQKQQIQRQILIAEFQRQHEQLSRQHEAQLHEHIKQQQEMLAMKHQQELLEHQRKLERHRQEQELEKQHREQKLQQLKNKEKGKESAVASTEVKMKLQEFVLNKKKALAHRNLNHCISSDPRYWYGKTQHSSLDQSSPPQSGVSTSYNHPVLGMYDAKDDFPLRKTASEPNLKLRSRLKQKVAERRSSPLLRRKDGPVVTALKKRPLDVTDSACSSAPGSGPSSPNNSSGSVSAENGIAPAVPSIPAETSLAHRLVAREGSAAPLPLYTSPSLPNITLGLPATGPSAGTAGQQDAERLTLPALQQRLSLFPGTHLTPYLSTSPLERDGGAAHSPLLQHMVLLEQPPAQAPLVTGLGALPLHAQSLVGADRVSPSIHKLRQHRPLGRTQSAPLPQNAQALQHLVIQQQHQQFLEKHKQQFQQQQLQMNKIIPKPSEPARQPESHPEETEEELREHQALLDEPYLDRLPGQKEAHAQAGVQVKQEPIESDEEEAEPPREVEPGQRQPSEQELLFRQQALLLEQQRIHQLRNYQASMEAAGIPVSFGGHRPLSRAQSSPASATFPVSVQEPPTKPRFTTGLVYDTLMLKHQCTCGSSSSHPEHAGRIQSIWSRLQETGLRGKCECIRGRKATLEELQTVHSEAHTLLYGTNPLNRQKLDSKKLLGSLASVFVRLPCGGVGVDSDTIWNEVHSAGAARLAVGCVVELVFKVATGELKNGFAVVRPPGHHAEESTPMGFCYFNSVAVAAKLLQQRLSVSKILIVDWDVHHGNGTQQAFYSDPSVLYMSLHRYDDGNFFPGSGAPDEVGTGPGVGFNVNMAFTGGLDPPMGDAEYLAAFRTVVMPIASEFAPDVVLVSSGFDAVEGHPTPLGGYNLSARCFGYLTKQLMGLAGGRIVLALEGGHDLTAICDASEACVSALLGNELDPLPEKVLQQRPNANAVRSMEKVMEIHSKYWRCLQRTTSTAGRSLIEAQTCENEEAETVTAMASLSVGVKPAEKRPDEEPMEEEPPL
T4 sequence (O15379 whole entry): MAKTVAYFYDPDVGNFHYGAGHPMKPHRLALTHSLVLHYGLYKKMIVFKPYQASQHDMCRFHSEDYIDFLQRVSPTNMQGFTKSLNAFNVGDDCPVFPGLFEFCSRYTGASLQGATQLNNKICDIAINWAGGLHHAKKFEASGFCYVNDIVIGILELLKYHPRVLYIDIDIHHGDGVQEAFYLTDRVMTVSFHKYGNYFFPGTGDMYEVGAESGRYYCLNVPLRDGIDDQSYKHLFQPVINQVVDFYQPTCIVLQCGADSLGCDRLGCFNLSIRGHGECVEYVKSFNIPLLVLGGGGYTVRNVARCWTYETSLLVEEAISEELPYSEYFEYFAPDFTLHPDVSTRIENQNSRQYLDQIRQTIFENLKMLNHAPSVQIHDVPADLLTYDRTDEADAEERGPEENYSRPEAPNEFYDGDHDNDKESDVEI

As to `COc1ccc(CNC(=O)c2ccc(C(=O)C(F)(F)C(F)(F)F)s2)cc1`, the outcome (in [1]; in experiment [2]; on Histone deacetylase 4 [3]) was inactive. The figures for the IC50 against Histone deacetylase 3 [4] and against Histone deacetylase 1 [5] were 2900 nM and 4200 nM, respectively.
As for `C[C@@H](NC(=O)c1ccc(C(=O)NO)s1)c1ccccc1`, the IC50 at Histone deacetylase 4 [6] came to 2700 nM; at Histone deacetylase 3 [4], 10 nM; at Histone deacetylase 4 [8] it was 100 nM. Also, the inhibition in experiment [7] stood at 94%.
Regarding `CS(=O)(=O)c1ccc(C(=O)N2CCc3ccccc32)s1`, the inhibition in experiment [1] was 47%. Moreover, the result (in experiment [2]; on Histone deacetylase 1 [9]; on Histone deacetylase 4 [3]; at Histone deacetylase 3 [10]) was inactive.
With `CN(Cc1ccc2nccnc2c1)C(=O)c1ccc(C(=O)C(F)(F)F)s1`, the concentration for half-maximal inhibition (IC50) against Histone deacetylase 4 [6] was 98 nM; against Tubulin, 12000 nM; against Histone deacetylase 3 [4], 670 nM; against Histone deacetylase 4 [8] it was 87 nM; in experiment [11] it was 89 nM; against Histone deacetylase 1 [5], 580 nM.
`O=C(c1ccc(C(=O)C(F)(F)F)s1)N1CCn2c(-c3ccccc3)cnc2C1`: on Histone deacetylase 3 [12], the inhibition was found to be 44%. Further, the 50% inhibitory concentration (IC50) was found to be 320 nM at Histone deacetylase 4 [6], 370 nM on Histone deacetylase 4 [8], 310 nM in [11] and 5500 nM at Histone deacetylase 1 [5].
In turn, `O=C(c1ccc(B(O)O)s1)N1CCc2ccccc21` came in with an inhibition in experiment [1] of 42%. In addition, the outcome (in experiment [2]; on Histone deacetylase 1 [9]; on Histone deacetylase 4 [3]; at Histone deacetylase 3 [10]) was inactive.
As for `O=C(c1ccc(P(=O)(O)O)s1)N1CCc2ccccc21`, the outcome (in [1]; in [2]; on Histone deacetylase 1 [9]; at Histone deacetylase 4 [3]; at Histone deacetylase 3 [10]) was inactive.
On to `CN(Cc1ccc2nccnc2c1)C(=O)c1ccc(C(=O)O)s1`, for which the outcome (in experiment [1]; in experiment [2]; on Histone deacetylase 1 [9]; at Histone deacetylase 4 [3]; at Histone deacetylase 3 [10]) was inactive.
As for `CN(Cc1ccccc1)C(=O)c1ccc(C(O)C(F)(F)F)s1` (stereo not given), the result (in [1]; in experiment [2]; at Histone deacetylase 1 [9]; at Histone deacetylase 4 [3]; at Histone deacetylase 3 [10]) was inactive.
For `O=C(c1ccc(C2(C(F)(F)F)OCCO2)s1)N1CCc2ccccc21`, the outcome (in [1]; in experiment [2]; on Histone deacetylase 1 [9]; at Histone deacetylase 4 [3]; at Histone deacetylase 3 [10]) was inactive.

For the origin of these results see ChEMBL document CHEMBL1150306, “2-Trifluoroacetylthiophenes, a novel series of potent and selective class II histone deacetylase inhibitors” (Bioorg Med Chem Lett, 2008).
